Reference: patent publication US8008329B2 (Dong Wha Pharmaceutical Co., Ltd., priority 2008, dated 2011)
Values joined by “and” are separate entries in the source; they are usually repeats but may differ in a detail not shown here. Equal values may be shown once. Marks after values point to notes of the source that are not given here.

What was measured:
[1] = tested on: osteoclast differentiation; test: Osteoclast differentiation in co-culture of mouse bone marrow cells and calvarial osteoblasts, TRAP staining (Examples 1-7); assay type: cell-based; settings: day 7
[2] = tested on: osteoclast differentiation; test: Osteoclast differentiation in co-culture of mouse bone marrow cells and ST2 cells, TRAP staining (Examples 8-9); assay type: cell-based; settings: for % number of osteoclast (vs. solvent control group): day 7; for activity at 0.1 µM: Mus musculus, Osteoclast, 168 h, day 7, read-out: % number of osteoclast (vs. solvent control group)
Summary of the method: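 Bone marrow cells from 6-8-week male ddY mice were co-cultured with ST2 stromal cells under 10^−8 M vitamin D3 and 10^−8 M dexamethasone, with compounds at 0.1 μM final (0.1% DMSO control), refreshed on days 3 and 5. On day 7, TRAP-positive osteoclasts with ≥6 nuclei were counted and expressed as % of solvent control (n=4).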

[3] = Combination treatment (alendronic acid + compounds), 0.1 μM each
[4] = Combination treatment (risedronic acid + compounds), 0.1 μM each
[5] = Individual treatment (compounds), 0.1 μM

Row | SMILES | % number of osteoclast (vs. solvent control group) [2, 3] | % number of osteoclast (vs. solvent control group) [2, 4] | activity at 0.1 µM [2, 5] | other results
1 | CC(C)c1sc(N2CCOCC2)nc1-c1ccc(OCCCCCOc2ccc(C(=N)NO)cc2)cc1 [Compound 169, N-hydroxy-4-{5-[4-(5-isopropyl-2-morpholino-1,3-thiazol-4-yl)phenoxy]pentyloxy}-benzamidine] |  |  |  | activity at 0.1 µM ([1]; Mus musculus, Osteoclast, 168 h, individual treatment of Compound (0.1 μM), read-out: % number of osteoclast (vs. solvent control group)): 78%; % number of osteoclast (vs. solvent control group) ([1]; combination treatment of alendronic acid (0.2 μM) with compound (0.1 μM)): 44% and 44 ± 7.4*^#@ %; % number of osteoclast (vs. solvent control group) ([1]; combination treatment of clodronic acid (1 μM) with compound (0.1 μM)): 59% and 59 ± 14.0*^#@ %; % number of osteoclast (vs. solvent control group) ([1]; combination treatment of etidronic acid (2 μM) with compound (0.1 μM)): 49% and 49 ± 9.7*^#@ %; % number of osteoclast (vs. solvent control group) ([1]; combination treatment of ibandronic acid (0.1 μM) with compound (0.1 μM)): 54 ± 8.7*^#@ %; % number of osteoclast (vs. solvent control group) ([1]; combination treatment of pamidronic acid (0.1 μM) with compound (0.1 μM)): 50% and 50 ± 8.7*^#@ %; % number of osteoclast (vs. solvent control group) ([1]; combination treatment of risedronic acid (0.1 μM) with compound (0.1 μM)): 42% and 42 ± 7.6*^#@ %; % number of osteoclast (vs. solvent control group) ([1]; combination treatment of zoledronic acid (0.01 μM) with compound (0.1 μM)): 59 ± 8.2*^#@ %; % number of osteoclast (vs. solvent control group) ([1]; individual treatment of Compound (0.1 μM)): 78 ± 8.6 %
2 | Cc1nc(-c2ccc(OCCCCCOc3ccc(C(=N)NO)cc3)cc2)c(CNCCCn2ccnc2)s1 [Compound 303, N-hydroxy-4-[5-(4-{5-[(3-imidazol-1-yl-propylamino)-methyl]-2-methyl-thiazol-4-yl}-phenoxy)-pentyloxy]-benzamidine] | 12 ± 2.5^ab % | 8 ± 2.2^ac % | 53 ± 10.7% | 
3 | Cc1nc(-c2ccc(OCCCCCOc3ccc(C(=N)NO)cc3)cc2)c(CN2CCCC2)s1 [Compound 304, N-hydroxy-4-{5-[4-(2-methyl-5-pyrolidin-1-ylmethyl-thiazol-4-yl)-phenoxy]-pentyloxy}-benzamidine] | 27 ± 6.4^ab % | 16 ± 4.5^ac % |  | % number of osteoclast (vs. solvent control group) [2, 5]: 54 ± 6.4%
4 | Cc1nc(-c2ccc(OCCCCCOc3ccc(C(=N)NO)cc3)cc2)c(Cn2ccnc2)s1 [Compound 305, N-hydroxy-4-{5-[4-(5-imidazol-1-ylmethyl-2-methyl-thiazol-4-yl)-phenoxy]-pentyloxy}-benzamidine] | 15 ± 4.8^ab % | 11 ± 4.1^ac % | 58 ± 6.1% | 
5 | Cc1nc(-c2ccc(OCCCCCOc3ccc(C(=N)NO)cc3)cc2)c(CNCc2ccccc2)s1 [Compound 306, N-hydroxy-4-(5-{4-[5-(benzylamino-methyl)-2-methyl-thiazol-4-yl]-phenoxy}-pentyloxy)-benzamidine] | 18 ± 4.3^ab % | 16 ± 3.3^ac % | 48 ± 6.4% | 
6 | Cc1nc(-c2ccc(OCCCCCOc3ccc(C(=N)NO)cc3)cc2)c(CNC2CC2)s1 [Compound 307, N-hydroxy-4-{5-[4-(5-cyclopropylaminomethyl-2-methyl-thiazol-4-yl)-phenoxy]-pentyloxy}-benzamidine] | 30 ± 3.0^b % | 16 ± 4.8^ac % | 43 ± 8.9% | 
7 | CN(Cc1ccncc1)c1nc(-c2ccc(OCCCCCOc3ccc(C(=N)NO)cc3)cc2)c(CN2CCOCC2)s1 [Compound 309, N-hydroxy-4-(5-{4-[2-(methyl-pyridin-4-ylmethyl-amino)-5-morpholin-4-ylmethyl-thiazol-4-yl]-phenoxy}-pentyloxy)-benzamidine] | 13 ± 5.1^ab % | 8 ± 3.0^ac % | 50 ± 6.1% | 
8 | CN(CCO)c1nc(-c2ccc(OCCCCCOc3ccc(C(=N)NO)cc3)cc2)c(CN2CCOCC2)s1 [Compound 310, N-hydroxy-4-[5-(4-{2-[(2-hydroxy-ethyl) -methyl-amino]-5-morpholin-4-ylmethyl-thiazol-4-yl}-phenoxy)-pentyloxy]-benzamidine] | 33 ± 5.1^ab % | 18 ± 4.5^ac % | 49 ± 3.3% | 
9 | CCN(C)c1nc(-c2ccc(OCCCCCOc3ccc(C(=N)NO)cc3)cc2)c(CN2CCOCC2)s1 [Compound 311, N-hydroxy-4-(5-{4-[2-(ethyl-methyl-amino)-5-morpholin-4-ylmethyl-thiazol-4-yl]-phenoxy}-pentyloxy)-benzamidine] | 21 ± 4.2^b % | 12 ± 5.8^ac % | 46 ± 10.7% | 
10 | CN(CCN1CCOCC1)c1nc(-c2ccc(OCCCCCOc3ccc(C(=N)NO)cc3)cc2)c(CN2CCOCC2)s1 [Compound 313, N-hydroxy-4-[5-(4-{2-[methyl-(2-morpholin-4-yl-ethyl)-amino]-5-morpholin-4-ylmethyl-thiazol-4-yl}-phenoxy)-pentyloxy]-benzamidine] | 23 ± 5.9^ab % | 13 ± 3.3^ac % | 53 ± 6% | 
11 | CN(CCN1CCOCC1)c1nc(-c2ccc(OCCCCCOc3ccc(C(=N)NO)cc3)cc2)c(CN2CCSCC2)s1 [Compound 314, N-hydroxy-4-[5-(4-{2-[methyl-(2-morpholin-4-yl-ethyl)-amino]-5-thiomorpholin-4-ylmethyl-thiazol-4-yl}-phenoxy)-pentyloxy]-benzamidine] | 15 ± 1.7^ab % | 9 ± 3.2^ac % | 43 ± 7% | 
12 | CC(C)NCc1sc(N(C)CCN2CCOCC2)nc1-c1ccc(OCCCCCOc2ccc(C(=N)NO)cc2)cc1 [Compound 317, N-hydroxy-4-[5-(4-{5-(isopropylamino-methyl)-2-[methyl-(2-morpholin-4-yl-ethyl)-amino]-thiazol-4-yl}-phenoxy)-pentyloxy]-benzamidine] | 18 ± 4.6^ab % | 16 ± 3.2^ac % | 45 ± 3.2% | 
13 | COCCNCc1sc(N(C)CCN2CCOCC2)nc1-c1ccc(OCCCCCOc2ccc(C(=N)NO)cc2)cc1 [Compound 318, N-hydroxy-4-[5-(4-{5-[(2-methoxy-ethylamino) -methyl]-2-[methyl-(2-morpholin-4-yl-ethyl)-amino]-thiazol-4-yl}-phenoxy) -pentyloxy]-benzamidine] | 27 ± 3.0^ab % | 12 ± 1.8^ac % | 43 ± 3.7% | 
14 | COCCN(C)c1nc(-c2ccc(OCCCCCOc3ccc(C(=N)NO)cc3)cc2)c(CN2CCOCC2)s1 [Compound 319, N-hydroxy-4-[5-(4-{2-[(2-methoxy-ethyl) -methyl-amino]-5-morpholin-4-ylmethyl-thiazol-4-yl}-phenoxy)-pentyloxy]-benzamidine] | 25 ± 2.6^ab % | 11 ± 3.3^ac % | 54 ± 5.9% | 
15 | CN(Cc1cccnc1)c1nc(-c2ccc(OCCCCCOc3ccc(C(=N)NO)cc3)cc2)c(CN2CCOCC2)s1 [Compound 321, N-hydroxy-4-(5-{4-[2-(methyl-pyridin-3-ylmethyl-amino)-5-morpholin-4-ylmethyl-thiazol-4-yl]-phenoxy}-pentyloxy)-benzamidine] | 19 ± 4.1^ab % | 18 ± 3.0^ac % | 48 ± 7% | 
16 | Cc1nc(-c2ccc(OCCCCCOc3ccc(C(=N)NO)cc3)cc2)c(N(C)C)s1 [Compound 326, N-hydroxy-4-{5-[4-(5-dimethylamino-2-methyl-thiazol-4-yl)-phenoxy]-pentyloxy}-benzamidine] | 34 ± 2.7^b % | 15 ± 6.0^ac % | 46 ± 11% | 
17 | N=C(NO)c1ccc(OCCCCCOc2ccc(-c3nc(-c4ccccc4)sc3N)cc2)cc1 [Compound 330, N-hydroxy-4-{5-[4-(5-amino-2-phenyl-thiazol-4-yl)-phenoxy]-pentyloxy}-benzamidine] | 23 ± 3.9^ab % | 12 ± 2.4^ac % | 46 ± 4.7% | 
18 | Cc1nc(-c2ccc(OCCCCCOc3ccc(C(=N)NO)cc3)cc2)c(N)s1 [Compound 331, N-hydroxy-4-{5-[4-(5-amino-2-methyl-thiazol-4-yl)-phenoxy]-pentyloxy}-benzamidine] | 18 ± 4.6^ab % | 7 ± 1.2^ac % | 43 ± 2.7% | 
19 | CNc1nc(-c2ccc(OCCCCCOc3ccc(C(=N)NO)cc3)cc2)c(CN2CCOCC2)s1 [Compound 335, N-hydroxy-4-{5-[4-(2-methylamino-5-morpholin-4-ylmethyl-thiazol-4-yl)-phenoxy]-pentyloxy}-benzamidine] | 41 ± 2.0^ab % | 23 ± 5.0^ac % | 54 ± 0.9% | 
20 | N=C(NO)c1ccc(OCCCCCOc2ccc(-c3nc(N4CCOCC4)sc3CN3CCOCC3)cc2)cc1 [Compound 336, N-hydroxy-4-{5-[4-(2-morpholin-4-yl-5-morpholin-4-ylmethyl-thiazol-4-yl)-phenoxy]-pentyloxy}-benzamidine] | 22 ± 3.2^ab % | 16 ± 3.0^ac % | 52 ± 4% | 
21 | N=C(NO)c1ccc(OCCCCCOc2ccc(-c3nc(N4CCCCC4)sc3N3CCOCC3)cc2)cc1 [Compound 337, N-hydroxy-4-{5-[4-(5-morpholin-4-yl-2-piperidin-1-yl-thiazol-4-yl)-phenoxy]-pentyloxy}-benzamidine] | 20 ± 3.0^ab % | 16 ± 3.6^ac % | 53 ± 3.7% | 
